# According to patent publication US10526580B2, “Differentiated cell population of endothelial cells derived from human pluripotent stem cells, composition, system, kit and uses thereof” (BIOCANT-ASSOCIAÇÃO DE TRANSFERÊNCIA DE TECNOLOGIA, priority 2012, dated 2020):
# Experiments:
# CD31+ cells = test: Shh and Notch signaling modulators, arterial and venous marker expression in CD31+ cells; assay type: cell-based, human; details: for expression of arterial marker EphB2: cyclopamine 5 μM and Notch inhibitor L685458 1 μM together; for expression of arterial EC markers EphB2 (protein level), HEY-2, JAG-1 and EFNB1 (gene level) / expression of venous EC markers Lefty-1 and Lefty-2: purmorphamine 1 μM and DLL4 100 ng/mL together, versus cells without activators
# Experimental: hESC culture and differentiation. Undifferentiated hESCs (passages 33-36; H9, WiCell, Wisconsin) or hiPSCs K2 (passages 32-35; cord blood derived iPSCs kindly donated by Ulrich Martin) were grown on an inactivated mouse embryonic fibroblast (MEF) feeder layer, as previously described 1, 2. To induce the formation of EBs, the undifferentiated hESCs were treated with 2 mg/mL type IV collagenase (Invitrogen) for 2 h and then transferred (2:1) to low attachment plates (Corning) containing 10 mL of differentiation medium [80% KO-DMEM, 20% fetal bovine serum (FBS, Invitrogen), 0.5% L-glutamine, 0.2% β-mercaptoethanol, 1% nonessential amino acids]. The differentiation medium was supplemented with VEGF165 (50 ng/mL, Prepotech), Tβ4 (100 ng/mL, Caslo) and SB431542 (10 μM, Tocris) according to the following timeline: [(VEGF165)days0-18+(Tβ4)days4-18+(SB431542)days7-18]. After 4 days in suspension, EBs were plated onto 1% gelatin-coated dishes and grown for 14 additional days. Medium was changed every 2-3 days. To evaluate the contribution of Shh and Notch signaling pathways, the differentiation medium was supplemented with one or two of the following agents: 1 μM purmorphamine (Shh activator; Cayman Chemical), 5 μM cyclopamine (Shh inhibitor; Sigma), 100 ng/ml DLL-4 (Notch activator; Prepotech), or 1 μM Y^−-secretase inhibitor L685458 (Notch inhibitor; Tocris Biosciences) 47.
# Arterial and venous gene expression was analyzed in CD31^+ cells at the time of their isolation. […] Because arterial/vein specification during mouse embryogenesis is in large part mediated by Notch and Sonic Hedgehog (Shh), the expression of Notch (Notch1, Notch2, Notch3, Notch4) and Shh (patched 1) receptors as well as Notch (DLL1, DLL3, DLL4, JAG-1, JAG-2) and Shh transcription factors (GLI1 and SMO) in CD31^+ cells was assessed (FIG. 1E). […] Was also studied the involvement of Notch and Shh signaling pathways in the gene expression of arterial and venous markers in cells after CD31^+ cell isolation. The independent activation of each signaling pathway has little impact in the expression of arterial marker EphB2 (FIG. 1F).
# HUVECs = details: cited from earlier work
# HUAECs = test: Vascular toxicity of terbinafine in static or flow culture (qRT-PCR, ELISA); assay type: cell-based, human
# Experimental: (§1) Fluidic shear stress experiments. HESC-derived ECs (2.6×10^6 cells/mL), HUAECs, HUVECs were seeded on flow chamber untreated-slides (μ-slide 0.4, luer, IBIDI) and grown until confluence. Using a programmed IBIDI pump with positive pressure, the cell monolayer was perfused with EGM-2 medium for 7 days, at flow rate of 15.1 mL/min (corresponding to shear stress of 20 dyne/cm2), or 3.02 mL/min (corresponding to shear stress of 4 dyne/cm2). After 7 days the flow was stopped, the cells imaged, and then stained or collected for posterior gene analysis. Medium was collected for ELISA assays. In some experiments, cells were cultured in medium supplemented with terbinafine (0.1 μM or 1 μM) (Sigma) for a maximum of 24 h, under shear stress. Static controls were performed in the chamber coated-slides but without flow. The IBIDI slides allow a laminar perfusion in rectangular flow geometry.
# (§2) Evaluation of the levels of vascular injury by specific markers. ELISA kits analyzed supernatants collected from the shear stress experiments for vWF and vWFpp (Gen-Probe GTI Diagnostic) and ADMA (Enzo Life Sciences), according to manufacturer's recommendations.
# Terbinafine is an antifungal agent (inhibitor of ergosterol synthesis) that inhibits angiogenesis by suppressing endothelial cell proliferation, inhibits DNA synthesis and activates EC apoptosis^34, 35. Terbinafine is cytotoxic for HUVECs for concentrations above 120 μM^35. To determine whether the hESC-derived ECs cultured under flow conditions could be used to assess vascular toxicity, cells were cultured for 7 days at 20 dyne/cm2 after which the culture medium was supplemented or not with terbinafine (0.1 and 1 μM) and cells cultured under the same flow conditions for one more day. […] Next, was assessed by qRT-PCR the expression of genes involved in inflammation (ICAM-1; E-selectin), oxidative stress sensing (HO-1) and vasculature modulation (eNOS) in hESC-derived cells and control HUAEC after exposition to terbinafine (FIG. 3B). As expected, the expression of these genes increases under fluidic shear stress^36. […] Upregulation of some genes (HO-1 and E-selectin) was only observed for concentrations of 1 μM in HUAECs. […] ADMA is a naturally occurring amino acid that circulates in plasma and is generated by degradation of methylated proteins. Increase levels of ADMA inhibits nitric oxide (NO) production by competitive inhibition of the physiological substrate L-arginine^38. […]
# Next, the vascular damage/injury induced by terbinafine was assessed in hESC-derived ECs and control HUAECs, in the same conditions as before, by measuring the levels of ADMA and the ratio von Willebrand factor pro-peptide (vWFpp): von Willebrand factor (vWF) secreted by these cells (FIG. 3C). […]
# hESC-derived ECs = test: Vascular toxicity of terbinafine in static or flow culture (morphology, qRT-PCR, ELISA); assay type: cell-based, human
# Experimental: as §1, §2
# Terbinafine is an antifungal agent (inhibitor of ergosterol synthesis) that inhibits angiogenesis by suppressing endothelial cell proliferation, inhibits DNA synthesis and activates EC apoptosis^34, 35. Terbinafine is cytotoxic for HUVECs for concentrations above 120 μM^35. To determine whether the hESC-derived ECs cultured under flow conditions could be used to assess vascular toxicity, cells were cultured for 7 days at 20 dyne/cm2 after which the culture medium was supplemented or not with terbinafine (0.1 and 1 μM) and cells cultured under the same flow conditions for one more day. […] Next, was assessed by qRT-PCR the expression of genes involved in inflammation (ICAM-1; E-selectin), oxidative stress sensing (HO-1) and vasculature modulation (eNOS) in hESC-derived cells and control HUAEC after exposition to terbinafine (FIG. 3B). As expected, the expression of these genes increases under fluidic shear stress^36. […] Upregulation of some genes (HO-1 and E-selectin) was only observed for concentrations of 1 μM in HUAECs. […] ADMA is a naturally occurring amino acid that circulates in plasma and is generated by degradation of methylated proteins. Increase levels of ADMA inhibits nitric oxide (NO) production by competitive inhibition of the physiological substrate L-arginine^38. Drugs that inhibit NO pathway, upregulate caveolin-1 expression and/or enhance ADMA levels could potentially be associated with drug-induced endothelial dysfunction. Therefore, increased circulating levels of ADMA may serve as predictive marker of EC dysfunction^38. […] Such effect was not observed for HUAECs cultured under the same conditions. […] In addition, hESC-derived ECs are more sensitive to the effect of terbinafine than HUAECs.
# Next, the vascular damage/injury induced by terbinafine was assessed in hESC-derived ECs and control HUAECs, in the same conditions as before, by measuring the levels of ADMA and the ratio von Willebrand factor pro-peptide (vWFpp): von Willebrand factor (vWF) secreted by these cells (FIG. 3C). The last 2 proteins with different biological activity are released in equimolar concentrations in plasma and an increased level of both proteins predicts EC activation/injury. […] Remarkably, hESC-derived ECs cultured under flow conditions in the presence of terbinafine secrete higher levels of ADMA and vWFpp:vWF than without the drug. Again, the sensitivity of HUAECs to terbinafine was lower than hESC-derived ECs. The concentration of ADMA secreted by hESC-derived cells at 24 h is 3.5 times higher than in basal conditions. Importantly, this shift in concentration is observed in human patients with cardiovascular diseases. Healthy persons have an average of 0.45±0.19 μmol of ADMA per liter of blood and this value increases 2.2 or 2.7 folds when the patient has idiopathic pulmonary arterial hypertension^37. […]
# [1] = flow conditions, medium supplemented with terbinafine
molecule,measurement,setting,value
CC(C)C[C@H](NC(=O)[C@H](Cc1ccccc1)C[C@@H](O)[C@H](Cc1ccccc1)NC(=O)OC(C)(C)C)C(=O)N[C@@H](Cc1ccccc1)C(N)=O [L685458],expression of arterial marker EphB2,CD31+ cells,significantly decreased
CC1=C2C[C@H]3[C@@H](CC=C4C[C@@H](O)CC[C@@]43C)[C@@H]2CC[C@]12O[C@@H]1C[C@H](C)CN[C@H]1[C@H]2C [cyclopamine],expression of arterial marker EphB2,CD31+ cells,significantly decreased
c1ccc2c(Oc3nc(Nc4ccc(N5CCOCC5)cc4)c4ncn(C5CCCCC5)c4n3)cccc2c1 [purmorphamine],"expression of arterial EC markers EphB2 (protein level), HEY-2, JAG-1 and EFNB1 (gene level)",CD31+ cells,significantly increased
same,expression of venous EC markers Lefty-1 and Lefty-2,CD31+ cells,decreased
CN(C/C=C/C#CC(C)(C)C)Cc1cccc2ccccc12 [terbinafine],concentrations cytotoxic for HUVECs,HUVECs,above 120 μM
same,concentration at which upregulation of some genes (HO-1 and E-selectin) was observed,"HUAECs; flow 20 dyne/cm2, 24 h",1 µM
same,secretion of vWFpp:vWF,"HUAECs; flow conditions, exposed to terbinafine, ELISA",higher levels
same,decrease in the expression of DDAH1 and DDAH2,HUAECs; [1],not observed
same,secretion of ADMA or vWFpp:vWF versus control conditions,"HUAECs; static conditions, ELISA",no significant higher secretion
same,changes in EC morphology and cadherin expression,"hESC-derived ECs; flow 20 dyne/cm2, terbinafine 0.1 and 1 μM, day 8",No significant changes
same,secretion of ADMA and vWFpp:vWF versus without the drug,"hESC-derived ECs; flow conditions, ELISA",higher levels
same,"concentration of ADMA secreted, relative to basal conditions","hESC-derived ECs; flow conditions, at 24 h, ELISA",3.5 times
same,expression of DDAH1 and DDAH2,hESC-derived ECs; [1],significant decrease
same,secretion of ADMA or vWFpp:vWF versus control conditions,"hESC-derived ECs; static conditions, ELISA",no significant higher secretion
same,"expression of ICAM-1, E-selectin, HO-1 and eNOS genes (qRT-PCR)","hESC-derived ECs; terbinafine at 0.1 μM, flow 20 dyne/cm2, 24 h",higher
DLL4: Notch activator,"expression of arterial EC markers EphB2 (protein level), HEY-2, JAG-1 and EFNB1 (gene level)",CD31+ cells,significantly increased
same,expression of venous EC markers Lefty-1 and Lefty-2,CD31+ cells,decreased
